Assay results published in the supplement of paper PMC7017272.
± gives the standard deviation of the averaged measurements.

Experiments:
Test in all cases: drug sensitivity score (DSS); higher = more sensitive; extreme values may be limits of the assay
[1] = test system: UT-SCC-24B; conditions: culture condition: plastic 2D (no matrix); treatment time: 3 days
In short: (§1)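 Three growth formats were used for HPV-negative HNSCC cell lines in 384-well plates at 500 cells/well: bare plastic, wells coated with Matrigel or Myogel (500 µg/mL), and embedding in Matrigel or Myogel plus rat collagen I. Compounds were added at five 10-fold concentrations, and after 3 days CellTiter-Glo 2.0 luminescence was recorded and normalised to vehicle (0.1% DMSO) and cell-killing control wells. IC50, maximal inhibition and drug sensitivity score came from percent-inhibition dose–response fitting in the FIMM pipeline.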

[2] = test system: UT-SCC-28; conditions: treatment time: 3 days
In short: as §1

[3] = test system: UT-SCC-40; conditions: treatment time: 3 days
In short: as §1

[4] = test system: UT-SCC-42A; conditions: treatment time: 3 days
In short: as §1

[5] = test system: UT-SCC-42B; conditions: treatment time: 3 days
In short: as §1

[6] = test system: UT-SCC-44; conditions: treatment time: 3 days
In short: as §1

[7] = test system: UT-SCC-73; conditions: treatment time: 3 days
In short: as §1

[8] = test system: UT-SCC-81; conditions: treatment time: 3 days
In short: as §1

[9] = test system: UT-SCC-8; conditions: treatment time: 3 days
In short: as §1

[10] = culture condition: embedded in Matrigel
[11] = culture condition: embedded in Myogel + collagen I
[12] = culture condition: on top of Matrigel
[13] = culture condition: plastic 2D (no matrix)
[14] = culture condition: on top of Myogel

Cn1cnc2c(F)c(Nc3ccc(Br)cc3F)c(C(=O)NOCCO)cc21 [Binimetinib]
drug sensitivity score [1]: 9.3 ± 1.2 DSS
drug sensitivity score [2, 10]: 6.5 ± 2.1 DSS
drug sensitivity score [2, 11]: 0 DSS
drug sensitivity score [2, 12]: 4.43 ± 1.8 DSS
drug sensitivity score [2, 13]: 2.87 ± 2.4 DSS
drug sensitivity score [3, 10]: 16.3 ± 2.6 DSS
drug sensitivity score [3, 11]: 10.8 ± 4.3 DSS
drug sensitivity score [3, 12]: 11.7 ± 2.1 DSS
drug sensitivity score [3, 14]: 5.87 ± 1.8 DSS
drug sensitivity score [3, 13]: 7.63 ± 2 DSS
drug sensitivity score [4, 10]: 11.2 ± 1.7 DSS
drug sensitivity score [4, 11]: 5.2 ± 2.5 DSS
drug sensitivity score [4, 12]: 12.8 ± 2.1 DSS
drug sensitivity score [4, 14]: 5.1 ± 2.7 DSS
drug sensitivity score [4, 13]: 7.97 ± 0.65 DSS
drug sensitivity score [5, 10]: 16 ± 0.97 DSS
drug sensitivity score [5, 12]: 7.13 ± 3.2 DSS
drug sensitivity score [5, 14]: 1.77 ± 0.51 DSS
drug sensitivity score [5, 13]: 3.47 ± 0.32 DSS
drug sensitivity score [6, 10]: 13.9 ± 2.2 DSS
drug sensitivity score [6, 11]: 3.57 ± 1 DSS
drug sensitivity score [6, 12]: 11.4 ± 0.57 DSS
drug sensitivity score [6, 14]: 5.07 ± 1.4 DSS
drug sensitivity score [6, 13]: 7.77 ± 4.3 DSS
drug sensitivity score [7, 10]: 14.6 ± 0.67 DSS
drug sensitivity score [7, 11]: 9.93 ± 3.5 DSS
drug sensitivity score [7, 12]: 14.3 ± 0.8 DSS
drug sensitivity score [7, 14]: 8.03 ± 1.4 DSS
drug sensitivity score [7, 13]: 12 ± 1 DSS
drug sensitivity score [8, 10]: 20.4 ± 0.21 DSS
drug sensitivity score [8, 11]: 0.933 ± 0.55 DSS
drug sensitivity score [8, 12]: 11 ± 1.7 DSS
drug sensitivity score [8, 14]: 3.7 ± 1.1 DSS
drug sensitivity score [8, 13]: 4.4 ± 0.69 DSS
drug sensitivity score [9, 10]: 5.73 ± 4.6 DSS
drug sensitivity score [9, 11]: 1.97 ± 3.4 DSS
drug sensitivity score [9, 12]: 3.73 ± 2.5 DSS
drug sensitivity score [9, 14]: 4.67 ± 4.2 DSS
drug sensitivity score [9, 13]: 3.83 ± 3.4 DSS
